Source: PubChem BioAssay (NCI)
Where “and” joins values, the source holds several entries; their conditions need not be identical. Equal values may be shown once.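 Results reflect a 48-hour exposure of cells in 96-well plates to compound at five concentrations. GI50 marks 50% less growth. TGI is the concentration that stops growth completely.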

Key:
Test in all cases: NCI anticancer screen, dose series, 48 h
A549 NSCLC = test system: A549 NSCLC
BT-549 breast = test system: BT-549 breast
HT29 colon = test system: HT29 colon
M14 melanoma = test system: M14 melanoma
MOLT-4 leukemia = test system: MOLT-4 leukemia
NCI-H23 lung = test system: NCI-H23 lung
NCI-H522 lung = test system: NCI-H522 lung
OVCAR-3 ovarian = test system: OVCAR-3 ovarian
UACC-257 melanoma = test system: UACC-257 melanoma
UACC-62 melanoma = test system: UACC-62 melanoma

Row | Compound | TGI (A549 NSCLC) | TGI (BT-549 breast) | TGI (HT29 colon) | TGI (M14 melanoma) | TGI (MOLT-4 leukemia) | TGI (NCI-H23 lung) | TGI (NCI-H522 lung) | TGI (OVCAR-3 ovarian) [µM] | TGI (UACC-257 melanoma) | TGI (UACC-62 melanoma) | GI50 (A549 NSCLC) | GI50 (BT-549 breast) | GI50 (M14 melanoma) | GI50 (MOLT-4 leukemia) [µM] | GI50 (NCI-H23 lung) | GI50 (NCI-H522 lung) | GI50 (OVCAR-3 ovarian) | GI50 (UACC-257 melanoma) [µM] | GI50 (UACC-62 melanoma) [µM] | GI50 (HT29 colon)
1 | COc1ccc(C(c2cc3c(cc2O)OCO3)N2CCOCC2)cc1OC (centres undefined) | 51.9 µM | 43.8 µM | 26 µM | 24.9 µM | 80.8 µM | 15.9 µM | 15.1 µM | 20.5 | 34.1 µM | 19.9 µM |  |  |  |  |  |  |  |  |  | 
2 | O=C(O)CCSC(=S)Nc1ccc([N+](=O)[O-])cc1 | > 100 µM | > 100 µM | > 100 µM | > 100 µM | > 68 µM | > 100 µM | > 68 µM | > 87.8 | 55.1 µM | 46.7 µM |  |  |  |  |  |  |  |  |  | 
3 | Cn1c(=O)c2[nH]c(CCCCc3nc4c([nH]3)c(=O)n(C)c(=S)n4C)nc2n(C)c1=S | > 100 µM | > 100 µM | > 100 µM | > 100 µM |  | > 100 µM | > 100 µM | > 100 | > 100 µM | > 100 µM |  |  |  |  |  |  |  |  |  | 
4 | Cc1ccc2c(c1)C=CC(C#N)N2C(=O)Oc1ccccc1 (centres undefined) | > 100 µM | 48.2 µM | 35.3 µM | > 100 µM | 54.9 µM | 44.5 µM | 41 µM |  | > 100 µM | > 100 µM |  |  |  |  |  |  |  |  |  | 
5 | CC(C)c1ccc2nc3ccc(C(=O)NCCN4CCN(c5ccccc5)CC4)cn3c(=O)c2c1 | > 100 µM | > 100 µM | > 100 µM | > 100 µM |  | > 100 µM | > 100 µM | > 100 | > 100 µM | > 100 µM |  |  |  |  |  |  |  |  |  | 
6 | Fc1cccc(-c2[nH]nc3nc(Nc4cccnc4)sc23)c1 | > 100 µM | 47 µM |  | > 100 µM | > 100 µM | > 100 µM | > 100 µM | 13.5 | > 100 µM | > 100 µM | 4.18 µM | 14.9 µM | 11.3 µM | 9.13 | 23 µM | 13.7 µM | 1.68 µM | > 100 | > 100 | 
7 | CC(C)(C)c1cc(-c2nc3c(F)c(F)c(F)c(F)c3[nH]2)cc(C(C)(C)C)c1O | > 100 µM | > 100 µM | > 100 µM | > 100 µM | > 100 µM |  | > 100 µM | > 100 | > 100 µM | > 100 µM | > 100 µM | > 100 µM | > 100 µM | > 100 |  | > 100 µM | > 100 µM | > 100 | > 100 | > 100 µM
8 | Nc1nc(-c2cccs2)cs1 | > 100 µM | > 100 µM | > 100 µM | > 100 µM |  | > 100 µM | > 100 µM | > 100 | > 100 µM | > 100 µM |  |  |  |  |  |  |  |  |  | 
9 | COc1ccc(C2c3c(-c4ccccc4)nn(-c4ccccc4)c3Oc3ncn4nc(CC#N)nc4c32)cc1OC (centres undefined) | > 100 µM and 68.1 µM | 59.2 µM and > 41.6 µM | > 100 µM | > 100 µM and 13.3 µM | > 100 µM | > 100 µM | > 100 µM and 15.7 µM | > 100 | > 100 µM and 40.4 µM |  | > 100 µM and 13.7 µM | 19.9 µM and 8.82 µM | 55.6 µM and 6.33 µM |  | 47.2 µM and 19.5 µM | 40.2 µM and 4.62 µM | 75.4 µM and 10.3 µM |  |  | 99.9 µM and 14.8 µM
10 | CSC1(CC(=O)N2CCCCC2)C(=O)Nc2ccccc21 (centres undefined) | > 100 µM | > 100 µM | > 100 µM | > 100 µM | > 100 µM | > 100 µM |  | > 100 | > 100 µM | > 100 µM |  |  |  |  |  |  |  |  |  | 
11 | COC1=C(OC)[C@]2(OC)c3c(O)c(OC)c4c(c3O[C@@]23O[C@@H](c2ccccc2)CC=C3C1=O)[C@@H](O)C[C@H](c1ccccc1)O4 | 4.39 µM | 1.21 µM | 0.565 µM | 1.17 µM | 0.354 µM |  |  | 0.517 | 2.36 µM | 1.3 µM | 2.01 µM | 0.394 µM | 0.358 µM | 0.0852 |  |  | 0.204 µM | 1.01 | 0.326 | 0.224 µM
12 | C/C(=C\c1ccn(-c2ccc(N)cc2F)n1)[C@@H]1C[C@@H]2O[C@]2(C)CCC[C@H](C)[C@H](O)[C@@H](C)C(=O)C(C)(C)[C@@H](O)CC(=O)O1 | > 50 µM | > 50 µM | > 29 µM |  | > 21.8 µM | > 50 µM | 0.171 µM | 0.159 | > 50 µM | > 50 µM | 0.0355 µM | 0.0943 µM |  | 0.0286 | 0.033 µM | 0.0255 µM | 0.0166 µM | > 50 | 0.0914 | 0.0173 µM
13 | Cc1cc2nc(C(Cl)Cl)nc(-c3ccccc3)n2n1 | 6.45 µM | > 100 µM | 13.9 µM |  | > 100 µM | 10.9 µM | > 100 µM | 4.53 | 34.2 µM | 56 µM | 2.48 µM | 17.4 µM |  | 5.67 | 3.06 µM | 4.27 µM | 2.11 µM | 7.35 | 8.55 | 2.77 µM
14 | Cn1c(=N)n[n+]([O-])c2ccccc21 | 23.1 µM and 29.8 µM | 3.27 µM and 3.46 µM | 4.88 µM and 15.1 µM | 3.7 µM and 3.76 µM | 5.57 µM and 5.16 µM | 4.4 µM and 6.39 µM | 10.7 µM and 15.6 µM |  | 5.51 µM and 3.92 µM | 2.37 µM and 3.61 µM |  |  |  |  | 2.44 µM |  |  |  |  | 
15 | Nc1ncnc2c1ncn2C1OC(COC2C(CO)OC(OC(C(=O)O)C(O)C(OP(=O)(O)O)C(O)C(=O)O)C(O)C2O)C(O)C1O (centres undefined) | > 100 µM | > 100 µM | > 100 µM | > 100 µM | > 100 µM | > 100 µM | > 100 µM | > 100 | > 100 µM |  |  |  |  |  |  |  |  |  |  | 
16 | Cc1ccc(NC(=O)c2cc3ccccc3cc2O)c(C)c1.Cc1ccc(NC(=O)c2cc3ccccc3cc2[O-])c(C)c1.[Ni+2] | 15.6 µM | 7.55 µM | 10.9 µM | 13.9 µM |  | 10.1 µM | 10.5 µM | 20.6 | 7.85 µM | 21.2 µM | 3.44 µM | 2.44 µM | 4.31 µM |  | 2.48 µM | 3.08 µM | 4.23 µM | 2.94 | 4.91 | 3.14 µM
17 | Nc1c2ccccc2nc2ccccc12 (tested in a mixture with another compound) |  | 17.6 µM | 3.48 µM | 3.92 µM | 13.1 µM | 5.68 µM | 2.73 µM | 6.15 | 4.48 µM | 3.74 µM |  | 4.42 µM | 1.87 µM | 2.32 | 1.94 µM | 1.17 µM | 2.29 µM | 1.87 | 1.62 | 1.08 µM
